Where two headings read alike, the source gives them in different places.
Test system: Candida albicans
Assay: Survival of mice infected with Candida albicans after oral administration
Type: in vivo
Conditions: for responders at 20 mg/kg: po
Protocol: To mice (one group consisting of 10 mice), which were innoculated with 4 to 9×10^6 Candida albicans, were administered orally 20 mg/kg of preparations after 1, 4 and 24 hours, and thereafter the survival rate until 21 days after infection was examined.

[1] = 336 h, mice inoculated with 4 to 9×10^6 Candida albicans, 20 mg/kg orally after 1, 4 and 24 hours, 14 days after infection, read-out: Survival rate % 14 days
[2] = 504 h, mice inoculated with 4 to 9×10^6 Candida albicans, 20 mg/kg orally after 1, 4 and 24 hours, 21 days after infection, read-out: Survival rate % 21 days

Row | SMILES | responders at 20 mg/kg [1] [%] | responders at 20 mg/kg [2] [%] | also measured
1 | C[C@@H](S[C@H]1CO[C@H](/C=C/C=C/c2ccc(SC(F)(F)F)cc2)OC1)[C@](O)(Cn1cncn1)c1ccc(F)cc1F [Example 32, (2R,3R)-2-(2,4-Difluorophenyl)-1-(1 H-1,2,4-triazol-1-yl)-3-[[trans-2-[(1E, 3E) -4-[4-(trifluoromethylthio)phenyl]-1,3-butadien-1-yl]-1,3-dioxan-5-yl]thio]-2-butanol] | 100 | 100 | 
2 | C[C@@H](S[C@H]1CO[C@H](/C=C/c2ccc(OC(F)(F)F)cc2)OC1)[C@](O)(Cn1cncn1)c1ccc(F)cc1F [Example 11, (2R,3R)-2-(2,4-Difluorophenyl)-1-(1 H-1,2,4-triazol-1-yl)-3-[[trans-2-[(E)-2-[4-(trifluoromethoxy)phenyl]vinyl]-1,3-dioxan-5-yl]thio]-2-butanol] | 100 | 100 | 
3 | C[C@@H](S[C@H]1CO[C@H](/C=C/C=C/c2ccc(C(F)(F)F)cc2)OC1)[C@](O)(Cn1cncn1)c1ccc(F)cc1F [Example 15, (2R,3R)-2-(2,4-Difluorophenyl)-1-(1 H-1,2,4-triazol-1-yl) -3-[[trans-2-[(1 E,3 E)-4-[4-(trifluoromethyl)phenyl]-1,3-butadien-1-yl]-1,3-dioxan-5-yl]thio]-2-butanol] | 100 | 100 | 
4 | OC(Cn1cncn1)(Cn1cncn1)c1ccc(F)cc1F [Fluconazol, reference compound] |  |  | responders at 20 mg/kg (Candida albicans, 336 h, read-out: Survival rate % 14 days): 70%; responders at 20 mg/kg (Candida albicans, 504 h, read-out: Survival rate % 21 days): 60%
5 | C[C@@H](S[C@H]1CO[C@H](/C=C/C=C/c2ccc([S+]([O-])C(F)(F)F)cc2)OC1)[C@](O)(Cn1cncn1)c1ccc(F)cc1F (stereo partly drawn) [Example 35, (2R,3R)-2-(2,4-Difluorophenyl)-1-(1 H-1,2,4-triazol-1-yl)-3-[[trans-2-[(1E,3E)-4-[4-(trifluoromethylsulfinyl)phenyl]-1,3-butadien-1-yl]-1,3-dioxan-5-yl]thio]-2-butanol] | 100 | 100 | 
6 | C[C@@H](SC1CCN(C(=O)/C=C/c2ccc(OC(F)(F)F)cc2)CC1)[C@](O)(Cn1cncn1)c1ccc(F)cc1F [Example 21, (2R,3R)-2-(2,4-Difluorophenyl) -3-[[1-[(E)-4-(trifluoromethoxy)cinaamoyl]piperidin-4-yl]thio]-1-(1 H-1,2,4-triazol-1-yl)-2-butanol] |  |  | Survival rate % 14 days (mice inoculated with 4 to 9×10^6 Candida albicans, 20 mg/kg orally after 1, 4 and 24 hours, 14 days after infection): 100%; Survival rate % 21 days (mice inoculated with 4 to 9×10^6 Candida albicans, 20 mg/kg orally after 1, 4 and 24 hours, 21 days after infection): 60%
7 | CC(SC1COC(/C=C/C=C/C=C/c2ccc(C(F)(F)F)cc2)OC1)C(O)(Cn1cncn1)c1ccc(F)cc1F [Example 37, (2R,3R)-2-(2,4-Difluorophenyl)-1-(1 H-1,2,4-triazol-1-yl)-3-[[trans-2-[(1E,3E,5E)-6-[4-(trifluoromethyl)phenyl]-1,3,5-hexatrien-1-yl]-1,3-dioxam-5-yl]thio]-2-butanol] | 100 | 100 | 
8 | C[C@@H](S[C@H]1CO[C@H](/C=C/C=C(/c2ccc(Cl)cc2)C(F)(F)F)OC1)[C@](O)(Cn1cncn1)c1ccc(F)cc1F [Example 18, (2R,3R) -2-(2,4-Difluorophenyl)-3-[[trans-2-[(1 E,3 Z)-4-(4-chlorophenyl)-5,5,5-trifluoro-1,3-pentadien-1-yl]-1,3-dioxan-5-yl]thio]-1-(1 H-1,2,4-triazol-1-yl)-2-butanol] | 100 | 100 | 
9 | CC(C)(SC1COC(/C=C/c2ccc(C(F)(F)F)cc2)OC1)C(O)(Cn1cncn1)c1ccc(C(F)(F)F)cc1 (racemic) [Example 30, (RS)-3-Methyl-1-(1 H-1,2,4-triazol-1-yl)-2-[4-(trifluoromethyl)phenyl]-3-[[trans-2-[(E)-2-[4-(trifluoromethyl)phenyl]vinyl]-1,3-dioxan-5-yl]thio]-2-butanol] | 100 | 100 | 
10 | C[C@@H](S[C@H]1CO[C@H](/C=C/C=C/c2ccc(OCC(F)(F)C(F)F)cc2)OC1)[C@](O)(Cn1cncn1)c1ccc(F)cc1F [Example 16, (2R,3R)-2-(2,4-Difluorophenyl)-3-[[trans-2-[(1 E,3 E)-4-[4-(2,2,3,3-tetrafluoropropoxy)phenyl]-1,3-butadien-1-yl]-1,3-dioxan-5-yl]thio]-1-(1 H-1,2,4-triazol-1-yl)-2-butanol] | 100 | 100 | 
11 | C[C@@H](S[C@H]1CO[C@H](/C=C/c2ccc(C(F)(F)F)cc2)OC1)[C@](O)(Cn1cncn1)c1ccc(F)cc1F [Example 2, (2R,3R)-2-(2,4-Difluorophenyl)-3-[[trans-2-[(E)-2-[4-(trifluoromethyl)phenyl]vinyl]-1,3-dioxan-5-yl]thio]-1-(1 H-1,2,4-triazol-1-yl)-2-butanol] | 100 | 100 | 
